Measured values from article PMC9856672, “SGC-CAMKK2-1: A Chemical Probe for CAMKK2” (Cells, 2023).

Experiments:
KIT(V559D,V654A) = target: T1, KIT(V559D,V654A) (Homo sapiens, UniProt P10721, V559D/V654A); test: KINOMEscan at 1 μM, KIT(V559D,V654A); assay type: binding; settings: 1000 nM, read-out: Percent Control
T1 construct: purchased Eurofins DiscoverX KINOMEscan
Excerpt: (§1) Supplement cells-12-00287-s001.zip/File S2. KinomeScan data for the CAMKK2 probe and negative control.xlsx, sheet "SGC-CAMKK2-1N" | column: Percent Control

BMPR1A = target: T2, BMPR1A (Homo sapiens, UniProt P36894); test: KINOMEscan at 1 μM, BMPR1A; assay type: binding; settings: 1000 nM, read-out: Percent Control
T2 construct: purchased Eurofins DiscoverX KINOMEscan
Excerpt: as §1

SIK = target: T3, SIK (Homo sapiens, UniProt P57059); test: KINOMEscan binding assay at 1 μM, SIK; settings: Compound Concentration 1000 nM; read-out: Percent Control
T3 construct: purchased Eurofins DiscoverX KINOMEscan
Excerpt: as §1

NEK6 = target: T4, NEK6 (Homo sapiens, UniProt Q9HC98); test: KINOMEscan binding assay at 1 μM, NEK6; settings: Compound Concentration 1000 nM; read-out: Percent Control
T4 construct: purchased Eurofins DiscoverX KINOMEscan
Excerpt: as §1

ASK2 = target: T5, ASK2 (Homo sapiens, UniProt O95382); test: KINOMEscan at 1 μM, ASK2; assay type: binding; settings: 1000 nM, read-out: Percent Control
T5 construct: purchased Eurofins DiscoverX KINOMEscan
Excerpt: as §1

DMPK = target: T6, DMPK (Homo sapiens, UniProt Q09013); test: KINOMEscan at 1 μM, DMPK; assay type: binding; settings: 1000 nM, read-out: Percent Control
T6 construct: purchased Eurofins DiscoverX KINOMEscan
Excerpt: as §1

MLK2 = target: T7, MLK2 (Homo sapiens, UniProt Q02779); test: KINOMEscan binding assay at 1 μM, MLK2; settings: Compound Concentration 1000 nM; read-out: Percent Control
T7 construct: purchased Eurofins DiscoverX KINOMEscan
Excerpt: as §1

CAMK1 = target: T8, CAMK1 (Homo sapiens, UniProt Q14012); test: KINOMEscan at 1 μM, CAMK1; assay type: binding; settings: 1000 nM, read-out: Percent Control
T8 construct: purchased Eurofins DiscoverX KINOMEscan
T8 sequence (Q14012 whole entry): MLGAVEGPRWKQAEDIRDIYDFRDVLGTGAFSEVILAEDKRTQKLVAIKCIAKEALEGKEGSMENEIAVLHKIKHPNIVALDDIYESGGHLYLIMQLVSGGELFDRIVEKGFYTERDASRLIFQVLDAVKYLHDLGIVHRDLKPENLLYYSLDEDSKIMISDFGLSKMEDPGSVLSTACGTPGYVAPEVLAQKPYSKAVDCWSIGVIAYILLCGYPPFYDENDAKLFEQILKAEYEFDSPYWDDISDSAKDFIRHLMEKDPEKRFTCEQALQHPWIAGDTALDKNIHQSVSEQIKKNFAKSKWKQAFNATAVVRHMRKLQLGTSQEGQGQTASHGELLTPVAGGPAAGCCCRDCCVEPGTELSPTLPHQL
Excerpt: as §1

FGFR3 [1] = target: T9, FGFR3 (Homo sapiens, UniProt P22607); test: KINOMEscan at 1 μM, FGFR3; assay type: binding; settings: 1000 nM, read-out: Percent Control
T9 construct: purchased Eurofins DiscoverX KINOMEscan
T9 sequence (P22607 23-806): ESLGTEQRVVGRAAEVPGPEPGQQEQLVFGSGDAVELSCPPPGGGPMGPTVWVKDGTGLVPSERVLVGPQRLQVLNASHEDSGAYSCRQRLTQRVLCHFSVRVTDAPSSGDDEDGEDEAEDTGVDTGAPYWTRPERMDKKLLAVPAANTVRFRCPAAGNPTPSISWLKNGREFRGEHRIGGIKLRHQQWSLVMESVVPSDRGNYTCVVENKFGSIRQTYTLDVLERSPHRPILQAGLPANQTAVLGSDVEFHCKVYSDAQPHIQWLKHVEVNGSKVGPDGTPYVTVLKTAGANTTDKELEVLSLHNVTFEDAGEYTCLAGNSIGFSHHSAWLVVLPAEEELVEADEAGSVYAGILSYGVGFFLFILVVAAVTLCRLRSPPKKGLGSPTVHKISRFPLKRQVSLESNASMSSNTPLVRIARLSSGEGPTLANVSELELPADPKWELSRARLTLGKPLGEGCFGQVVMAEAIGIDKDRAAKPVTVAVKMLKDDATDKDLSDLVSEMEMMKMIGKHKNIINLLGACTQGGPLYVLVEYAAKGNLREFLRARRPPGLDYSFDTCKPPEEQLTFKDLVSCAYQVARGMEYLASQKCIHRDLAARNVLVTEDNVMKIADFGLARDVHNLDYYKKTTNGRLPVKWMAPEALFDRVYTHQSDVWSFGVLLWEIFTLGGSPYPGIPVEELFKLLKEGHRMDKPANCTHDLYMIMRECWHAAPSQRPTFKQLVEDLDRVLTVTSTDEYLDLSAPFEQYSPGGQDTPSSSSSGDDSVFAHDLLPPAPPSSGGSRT
Excerpt: as §1

NEK1 = target: T10, NEK1 (Homo sapiens, UniProt Q96PY6); test: KINOMEscan at 1 μM, NEK1; assay type: binding; settings: 1000 nM, read-out: Percent Control
T10 construct: purchased Eurofins DiscoverX KINOMEscan
Excerpt: as §1

GCN2(Kin.Dom.2,S808G) = target: T11, GCN2(Kin.Dom.2,S808G) (Homo sapiens, UniProt Q9P2K8, S808G); test: KINOMEscan binding assay at 1 μM, GCN2(Kin.Dom.2,S808G); settings: Compound Concentration 1000 nM; read-out: Percent Control
T11 construct: GCN2(Kin.Dom.2,S808G); purchased Eurofins DiscoverX KINOMEscan
Excerpt: as §1

TEC = target: T12, TEC (Homo sapiens, UniProt P42680); test: KINOMEscan at 1 μM, TEC; assay type: binding; settings: 1000 nM, read-out: Percent Control
T12 construct: purchased Eurofins DiscoverX KINOMEscan
Excerpt: as §1

YANK1 = target: T13, YANK1 (Homo sapiens, UniProt Q8WU08); test: KINOMEscan at 1 μM, YANK1; assay type: binding; settings: 1000 nM, read-out: Percent Control
T13 construct: purchased Eurofins DiscoverX KINOMEscan
Excerpt: as §1

PIK3CA(Q546K) = target: T14, PIK3CA(Q546K) (Homo sapiens, UniProt P42336, Q546K); test: DiscoverX KINOMEscan binding assay at 1 μM, PIK3CA(Q546K); settings: Compound Concentration 1000 nM, read-out: Percent Control
T14 construct: purchased Eurofins DiscoverX KINOMEscan
Excerpt: (§2) Supplement cells-12-00287-s001.zip/File S2. KinomeScan data for the CAMKK2 probe and negative control.xlsx, sheet "SGC-CAMKK2-1" | column: Percent Control

CLK1 = target: T15, CLK1 (Homo sapiens, UniProt P49759); test: KINOMEscan 1 μM, CLK1; assay type: binding; settings: 1000 nM; Entrez CLK1; read-out: Percent Control
T15 construct: purchased Eurofins DiscoverX KINOMEscan
Excerpt: as §2

PIK4CB = target: T16, PIK4CB (Homo sapiens, UniProt Q9UBF8); test: DiscoverX KINOMEscan binding assay at 1 μM, PIK4CB; settings: PIK4CB (PI4KB); Compound Concentration 1000 nM; read-out: Percent Control
T16 construct: purchased Eurofins DiscoverX KINOMEscan
Excerpt: as §2

MET = target: T17, MET (Homo sapiens, UniProt P08581); test: KINOMEscan 1 μM, MET; assay type: binding; settings: 1000 nM; Entrez MET; read-out: Percent Control
T17 construct: purchased Eurofins DiscoverX KINOMEscan
T17 sequence (P08581 25-1390): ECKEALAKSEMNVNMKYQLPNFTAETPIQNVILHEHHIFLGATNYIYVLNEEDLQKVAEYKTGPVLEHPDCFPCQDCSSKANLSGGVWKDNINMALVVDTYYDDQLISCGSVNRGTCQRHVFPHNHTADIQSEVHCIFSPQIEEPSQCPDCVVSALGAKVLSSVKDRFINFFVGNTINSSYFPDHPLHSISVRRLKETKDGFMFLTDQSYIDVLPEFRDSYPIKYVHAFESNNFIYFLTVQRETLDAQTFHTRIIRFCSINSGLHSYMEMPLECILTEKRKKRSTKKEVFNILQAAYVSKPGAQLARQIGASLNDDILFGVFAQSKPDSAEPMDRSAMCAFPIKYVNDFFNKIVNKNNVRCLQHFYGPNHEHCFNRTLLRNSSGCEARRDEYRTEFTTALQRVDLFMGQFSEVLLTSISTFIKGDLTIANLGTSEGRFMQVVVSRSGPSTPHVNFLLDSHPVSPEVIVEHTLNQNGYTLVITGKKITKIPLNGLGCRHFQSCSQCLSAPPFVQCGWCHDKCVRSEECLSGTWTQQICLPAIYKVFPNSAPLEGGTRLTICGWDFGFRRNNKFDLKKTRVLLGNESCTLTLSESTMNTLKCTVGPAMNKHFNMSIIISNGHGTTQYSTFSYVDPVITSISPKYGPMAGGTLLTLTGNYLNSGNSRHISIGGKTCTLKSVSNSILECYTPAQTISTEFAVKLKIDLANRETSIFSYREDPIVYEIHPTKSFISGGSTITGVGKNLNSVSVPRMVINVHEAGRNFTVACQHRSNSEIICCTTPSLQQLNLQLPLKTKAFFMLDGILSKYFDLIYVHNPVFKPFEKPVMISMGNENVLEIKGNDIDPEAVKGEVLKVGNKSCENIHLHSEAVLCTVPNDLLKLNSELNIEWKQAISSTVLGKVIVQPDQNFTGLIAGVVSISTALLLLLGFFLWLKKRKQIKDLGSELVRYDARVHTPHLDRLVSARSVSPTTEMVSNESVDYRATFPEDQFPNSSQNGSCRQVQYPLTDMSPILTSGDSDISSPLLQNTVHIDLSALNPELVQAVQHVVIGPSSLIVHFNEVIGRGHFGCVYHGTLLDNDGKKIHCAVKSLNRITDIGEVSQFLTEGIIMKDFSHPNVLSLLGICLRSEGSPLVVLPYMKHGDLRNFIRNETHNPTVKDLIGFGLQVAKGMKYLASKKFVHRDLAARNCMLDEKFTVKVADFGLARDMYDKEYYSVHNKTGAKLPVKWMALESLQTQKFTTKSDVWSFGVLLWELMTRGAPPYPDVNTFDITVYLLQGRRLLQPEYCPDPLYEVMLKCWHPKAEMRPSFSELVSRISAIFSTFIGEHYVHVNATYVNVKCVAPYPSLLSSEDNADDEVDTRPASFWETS
Excerpt: as §2

CAMK1G = target: T18, CAMK1G (Homo sapiens, UniProt Q96NX5); test: KINOMEscan 1 μM, CAMK1G; assay type: binding; settings: 1000 nM; Entrez CAMK1G; read-out: Percent Control
T18 construct: purchased Eurofins DiscoverX KINOMEscan
Excerpt: as §2

FGFR3 [2] = target: T9, FGFR3; test: KINOMEscan 1 μM, FGFR3; assay type: binding; settings: 1000 nM; Entrez FGFR3; read-out: Percent Control
Excerpt: as §2

PLK3 = target: T19, PLK3 (Homo sapiens, UniProt Q9H4B4); test: DiscoverX KINOMEscan binding assay at 1 μM, PLK3; settings: Compound Concentration 1000 nM, read-out: Percent Control
T19 construct: purchased Eurofins DiscoverX KINOMEscan
Excerpt: as §2

TNK1 = target: T20, TNK1 (Homo sapiens, UniProt Q13470); test: DiscoverX KINOMEscan binding assay at 1 μM, TNK1; settings: Compound Concentration 1000 nM, read-out: Percent Control
T20 construct: purchased Eurofins DiscoverX KINOMEscan
Excerpt: as §2

KIT-autoinhibited = target: T21, KIT-autoinhibited (Homo sapiens, UniProt P10721); test: KINOMEscan 1 μM, KIT-autoinhibited; assay type: binding; settings: 1000 nM; Entrez KIT; read-out: Percent Control
T21 construct: purchased Eurofins DiscoverX KINOMEscan
Excerpt: as §2

PIK3CA(H1047Y) = target: T22, PIK3CA(H1047Y) (Homo sapiens, UniProt P42336, H1047Y); test: DiscoverX KINOMEscan binding assay at 1 μM, PIK3CA(H1047Y); settings: Compound Concentration 1000 nM, read-out: Percent Control
T22 construct: purchased Eurofins DiscoverX KINOMEscan
Excerpt: as §2

PAK2 = target: T23, PAK2 (Homo sapiens, UniProt Q13177); test: KINOMEscan 1 μM, PAK2; assay type: binding; settings: 1000 nM; Entrez PAK2; read-out: Percent Control
T23 construct: purchased Eurofins DiscoverX KINOMEscan
T23 sequence (Q13177 whole entry): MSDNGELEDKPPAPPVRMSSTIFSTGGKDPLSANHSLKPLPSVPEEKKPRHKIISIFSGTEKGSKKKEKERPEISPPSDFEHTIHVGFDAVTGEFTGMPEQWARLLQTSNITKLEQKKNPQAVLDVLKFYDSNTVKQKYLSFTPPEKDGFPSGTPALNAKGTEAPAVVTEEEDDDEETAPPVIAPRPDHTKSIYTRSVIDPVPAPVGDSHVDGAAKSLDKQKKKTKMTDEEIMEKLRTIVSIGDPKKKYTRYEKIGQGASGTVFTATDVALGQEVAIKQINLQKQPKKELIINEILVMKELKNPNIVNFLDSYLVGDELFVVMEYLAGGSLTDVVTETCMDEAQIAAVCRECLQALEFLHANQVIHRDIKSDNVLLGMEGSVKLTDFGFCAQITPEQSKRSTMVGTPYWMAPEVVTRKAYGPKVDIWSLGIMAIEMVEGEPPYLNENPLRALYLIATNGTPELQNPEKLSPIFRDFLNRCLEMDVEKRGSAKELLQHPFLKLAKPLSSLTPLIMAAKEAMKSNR
Excerpt: as §2

RET(V804M) = target: T24, RET(V804M) (Homo sapiens, UniProt P07949, V804M); test: DiscoverX KINOMEscan binding assay at 1 μM, RET(V804M); settings: Compound Concentration 1000 nM, read-out: Percent Control
T24 construct: purchased Eurofins DiscoverX KINOMEscan
Excerpt: as §2

PFTK1 = target: T25, PFTK1 (Homo sapiens, UniProt O94921); test: DiscoverX KINOMEscan binding assay at 1 μM, PFTK1; settings: PFTK1 (CDK14); Compound Concentration 1000 nM; read-out: Percent Control
T25 construct: purchased Eurofins DiscoverX KINOMEscan
Excerpt: as §2

KIT(V559D,T670I) = target: T26, KIT(V559D,T670I) (Homo sapiens, UniProt P10721, T670I/V559D); test: KINOMEscan 1 μM, KIT(V559D,T670I); assay type: binding; settings: 1000 nM; Entrez KIT; read-out: Percent Control
T26 construct: purchased Eurofins DiscoverX KINOMEscan
Excerpt: as §2

MAP3K15 = target: T27, MAP3K15 (Homo sapiens, UniProt Q6ZN16); test: KINOMEscan 1 μM, MAP3K15; assay type: binding; settings: 1000 nM; Entrez MAP3K15; read-out: Percent Control
T27 construct: purchased Eurofins DiscoverX KINOMEscan
Excerpt: as §2

CSK = target: T28, CSK (Homo sapiens, UniProt P41240); test: KINOMEscan 1 μM, CSK; assay type: binding; settings: 1000 nM; Entrez CSK; read-out: Percent Control
T28 construct: purchased Eurofins DiscoverX KINOMEscan
T28 sequence (P41240 whole entry): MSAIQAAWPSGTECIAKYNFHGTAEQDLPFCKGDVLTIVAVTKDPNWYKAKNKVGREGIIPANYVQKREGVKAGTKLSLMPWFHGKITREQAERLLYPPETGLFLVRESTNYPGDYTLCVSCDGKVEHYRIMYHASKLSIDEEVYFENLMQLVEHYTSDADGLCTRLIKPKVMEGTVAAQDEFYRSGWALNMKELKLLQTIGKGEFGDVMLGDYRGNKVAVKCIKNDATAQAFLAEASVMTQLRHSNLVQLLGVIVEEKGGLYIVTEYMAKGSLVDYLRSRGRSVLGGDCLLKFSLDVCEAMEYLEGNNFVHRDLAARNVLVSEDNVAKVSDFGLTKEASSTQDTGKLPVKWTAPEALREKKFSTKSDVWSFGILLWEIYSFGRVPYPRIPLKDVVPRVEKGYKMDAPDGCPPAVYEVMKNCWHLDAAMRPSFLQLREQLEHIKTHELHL
Excerpt: as §2

EPHA5 = target: T29, EPHA5 (Homo sapiens, UniProt P54756); test: KINOMEscan 1 μM, EPHA5; assay type: binding; settings: 1000 nM; Entrez EPHA5; read-out: Percent Control
T29 construct: purchased Eurofins DiscoverX KINOMEscan
Excerpt: as §2

EPHA8 = target: T30, EPHA8 (Homo sapiens, UniProt P29322); test: KINOMEscan 1 μM, EPHA8; assay type: binding; settings: 1000 nM; Entrez EPHA8; read-out: Percent Control
T30 construct: purchased Eurofins DiscoverX KINOMEscan
Excerpt: as §2

FLT3(D835H) = target: T31, FLT3(D835H) (Homo sapiens, UniProt P36888, D835H); test: KINOMEscan 1 μM, FLT3(D835H); assay type: binding; settings: 1000 nM; Entrez FLT3; read-out: Percent Control
T31 construct: purchased Eurofins DiscoverX KINOMEscan
Excerpt: as §2

GAK = target: T32, GAK (Homo sapiens, UniProt O14976); test: KINOMEscan 1 μM, GAK; assay type: binding; settings: 1000 nM; Entrez GAK; read-out: Percent Control
T32 construct: purchased Eurofins DiscoverX KINOMEscan
T32 sequence (O14976 whole entry): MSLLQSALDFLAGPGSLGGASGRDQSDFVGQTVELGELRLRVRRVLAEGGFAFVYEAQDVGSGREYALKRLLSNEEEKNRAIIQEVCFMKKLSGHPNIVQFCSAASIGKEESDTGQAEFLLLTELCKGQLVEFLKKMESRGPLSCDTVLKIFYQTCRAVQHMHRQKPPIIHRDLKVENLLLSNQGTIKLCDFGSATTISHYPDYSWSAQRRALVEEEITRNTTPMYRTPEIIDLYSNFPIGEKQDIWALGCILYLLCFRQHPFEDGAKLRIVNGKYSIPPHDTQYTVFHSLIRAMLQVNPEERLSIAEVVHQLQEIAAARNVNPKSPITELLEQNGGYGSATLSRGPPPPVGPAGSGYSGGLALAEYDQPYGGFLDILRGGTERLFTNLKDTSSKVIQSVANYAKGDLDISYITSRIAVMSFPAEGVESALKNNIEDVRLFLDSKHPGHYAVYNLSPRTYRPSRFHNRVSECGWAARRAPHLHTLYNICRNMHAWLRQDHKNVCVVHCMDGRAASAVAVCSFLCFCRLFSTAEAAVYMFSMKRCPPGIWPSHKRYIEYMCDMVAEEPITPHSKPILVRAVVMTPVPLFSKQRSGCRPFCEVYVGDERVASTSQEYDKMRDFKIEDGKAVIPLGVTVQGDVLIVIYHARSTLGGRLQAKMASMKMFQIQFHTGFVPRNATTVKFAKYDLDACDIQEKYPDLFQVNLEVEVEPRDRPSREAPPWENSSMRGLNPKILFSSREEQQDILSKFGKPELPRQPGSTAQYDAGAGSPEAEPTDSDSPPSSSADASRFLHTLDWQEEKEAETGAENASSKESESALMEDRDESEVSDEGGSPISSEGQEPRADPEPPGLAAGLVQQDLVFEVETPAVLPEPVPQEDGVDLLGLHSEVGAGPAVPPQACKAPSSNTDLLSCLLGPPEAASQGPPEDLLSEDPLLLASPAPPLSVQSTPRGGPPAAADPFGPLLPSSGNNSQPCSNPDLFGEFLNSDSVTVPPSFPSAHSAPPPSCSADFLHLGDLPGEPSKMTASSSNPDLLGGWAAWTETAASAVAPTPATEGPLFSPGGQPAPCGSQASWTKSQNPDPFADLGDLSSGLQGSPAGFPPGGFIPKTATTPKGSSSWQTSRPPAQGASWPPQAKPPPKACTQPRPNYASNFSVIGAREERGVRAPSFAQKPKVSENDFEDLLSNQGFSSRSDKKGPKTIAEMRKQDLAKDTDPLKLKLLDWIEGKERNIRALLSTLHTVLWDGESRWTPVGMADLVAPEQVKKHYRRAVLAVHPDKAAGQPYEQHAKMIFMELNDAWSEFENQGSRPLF
Excerpt: as §2

## O=C(O)c1ccc(-c2coc3ncc(-c4ccccc4)cc23)cc1Cl [SGC-CAMKK2-1N (UNC-YL-83)]
KIT(V559D,V654A)
  remaining binding at 1 µM: 92%
BMPR1A
  remaining binding at 1 µM: 93%
SIK
  remaining binding at 1 µM: 100%
NEK6
  remaining binding at 1 µM: 100%
ASK2
  remaining binding at 1 µM: 56%
DMPK
  remaining binding at 1 µM: 72%
MLK2
  remaining binding at 1 µM: 100%
CAMK1
  remaining binding at 1 µM: 62%
FGFR3 [1]
  remaining binding at 1 µM: 76%
NEK1
  remaining binding at 1 µM: 71%
GCN2(Kin.Dom.2,S808G)
  remaining binding at 1 µM: 100%
TEC
  remaining binding at 1 µM: 96%
YANK1
  remaining binding at 1 µM: 84%

## Cc1cccc(-c2cnc3occ(-c4ccc(C(=O)O)c(C5CCCC5)c4)c3c2)c1 [SGC-CAMKK2-1 (YL-36)]
PIK3CA(Q546K)
  remaining binding at 1 µM: 100%
CLK1
  remaining binding at 1 µM: 100%
PIK4CB
  remaining binding at 1 µM: 100%
MET
  remaining binding at 1 µM: 92%
CAMK1G
  remaining binding at 1 µM: 54%
FGFR3 [2]
  remaining binding at 1 µM: 95%
PLK3
  remaining binding at 1 µM: 100%
TNK1
  remaining binding at 1 µM: 100%
KIT-autoinhibited
  remaining binding at 1 µM: 100%
PIK3CA(H1047Y)
  remaining binding at 1 µM: 100%
PAK2
  remaining binding at 1 µM: 55%
RET(V804M)
  remaining binding at 1 µM: 100%
PFTK1
  remaining binding at 1 µM: 100%
KIT(V559D,T670I)
  remaining binding at 1 µM: 100%
MAP3K15
  remaining binding at 1 µM: 84%
CSK
  remaining binding at 1 µM: 99%
EPHA5
  remaining binding at 1 µM: 100%
EPHA8
  remaining binding at 1 µM: 95%
FLT3(D835H)
  remaining binding at 1 µM: 87%
GAK
  remaining binding at 1 µM: 80%
